The source of these data is patent publication EP1845096A1, “12-Aza-epothilones, process for their preparation and their use as antiproliferative agents” (ETH Zürich, priority 2006, dated 2007).

Where two headings read alike, the source gives them in different places.

A word on the IC50: it is the point on the concentration scale where inhibition reaches its midpoint. As a reminder, the EC50 is the concentration at which the effect is half-maximal.

One assay concerns A549. Kind of assay: Human cancer cell growth inhibition, methylene blue staining, A549. It is filed as cell-based. The protocol: (§1) Stock solutions of the test compounds (2 mM) are prepared in DMSO and stored at -20°C. Human KB-31 and (multidrug-resistant, P-gp170 expressing) KB-8511 epidermoid carcinoma cells (Akiyama et al., Somat. Cell. Mol. Genetics 1985, 11, 117-120), which are both derivatives of the KB cell line (ATCC) and are human epidermis carcinoma cells, are employed. KB 31 cells may be cultivated in mono-layers using Dulbecco's modified Eagle's medium (D-MEM) with 10% foetal calf serum (M.A. Bioproducts), L-glutamine (Flow), penicillin (50 units/ml) and streptomycin (50 µg/ml) (Flow); they then grow at a duplication time of ca. 22 hours, and their relative plating efficiency is ca. 60%. KB-8511 is a variant derived from the KB-31 cell line, which is obtained using colchicine treatment cycles, and has an approximately 40 times relative resistance to colchicine compared with KB-31 cells. The cells are incubated at 37°C in an incubator with 5% v/v CO2 and at 80% relative humidity with MEMAlpha medium which contains ribonucleosides and desoxyribonucleosides (Gibco BRL), complemented with 10 IU penicillin, 10 µg/ml streptomycin and 5% foetal calf serum. The cells are seeded in a quantity of 1.5 x 10^3 cells/well in 96-well microtitre plates, and incubated over night. Serial dilutions of the test compounds in culture medium are added on day 1. […] After washing, the dye is eluted with 3% HCl and the optical density measured at 665 nm with a GeniosPro plate spectrophotometer (Tecan, Switzerland). IC50 values are determined by adaptation of mathematical curves, using the formula [(OD treated)-(OD start) [/] (OD control)-(OD start)] x 100. The IC50 is defined as the concentration of a test compound at the end of the incubation period, which led to 50% of the cell count per well compared with the control (concentration at semi-maximum inhibition of cell growth).
(§2) The preferred ranges of the IC50 values of compounds of formula (I) are given in square parentheses. A549 (lung; ATCC CCL 185) [0.01 to 100 nM], HCT-116 (colon) [0.05 to 200 nM], and PC-3M cells (prostate, hormone-insensitive derivative derived from PC-3, ATCC CRL 1435) [0.05 to 500 nM] were grown in RPMI-1640 medium supplemented with 10% FBS.

For a further assay, the system named is PC-3M. Kind of assay: Human cancer cell growth inhibition, methylene blue staining, PC-3M. It is filed as cell-based. The note with it: read-out: IC50 PC-3M. The protocol:
as §1, §2

Another assay deals with porcine brain αβ-tubulin (Sus scrofa, UniProt P02554). Kind of assay: Tubulin polymerization (turbidimetry at 340 nm). Type of assay: biochemical. The protocol: Tubulin is isolated as pure αβ-tubulin from fresh pig brain according to the method of Castoldi and Popov (Protein Expr. Purif. 2003, 32, 83-88). Working stock solutions of αβ-tubulin are stored at -80°C. Freshly thawed αβ-tubulin is centrifuged and then incubated with the compounds to be tested in suitable solvents and buffers, guanosine-5'-triphosphate (GTP), and glutamate in a 96-well plate, as described in more detail below in the Examples. The polymerization is monitored real-time at 340 nm in a temperature-controlled TECAN GeniosPro spectrophotometer. UV absorption of compounds is subtracted from absorption curves.
porcine brain αβ-tubulin, sequence (P02554 whole entry): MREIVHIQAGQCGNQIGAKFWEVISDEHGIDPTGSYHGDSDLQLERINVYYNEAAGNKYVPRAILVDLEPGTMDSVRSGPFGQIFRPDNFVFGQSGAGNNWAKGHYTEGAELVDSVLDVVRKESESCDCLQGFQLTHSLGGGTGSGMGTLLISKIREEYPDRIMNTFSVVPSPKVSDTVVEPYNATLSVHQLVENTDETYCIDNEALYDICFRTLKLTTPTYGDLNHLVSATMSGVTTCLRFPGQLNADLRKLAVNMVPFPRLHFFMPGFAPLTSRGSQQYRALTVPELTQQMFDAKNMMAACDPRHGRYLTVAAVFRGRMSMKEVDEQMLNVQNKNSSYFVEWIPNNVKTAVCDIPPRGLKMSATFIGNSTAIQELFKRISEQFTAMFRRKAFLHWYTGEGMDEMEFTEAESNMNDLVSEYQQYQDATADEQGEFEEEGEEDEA
porcine brain αβ-tubulin, sequence (P02550 whole entry partner): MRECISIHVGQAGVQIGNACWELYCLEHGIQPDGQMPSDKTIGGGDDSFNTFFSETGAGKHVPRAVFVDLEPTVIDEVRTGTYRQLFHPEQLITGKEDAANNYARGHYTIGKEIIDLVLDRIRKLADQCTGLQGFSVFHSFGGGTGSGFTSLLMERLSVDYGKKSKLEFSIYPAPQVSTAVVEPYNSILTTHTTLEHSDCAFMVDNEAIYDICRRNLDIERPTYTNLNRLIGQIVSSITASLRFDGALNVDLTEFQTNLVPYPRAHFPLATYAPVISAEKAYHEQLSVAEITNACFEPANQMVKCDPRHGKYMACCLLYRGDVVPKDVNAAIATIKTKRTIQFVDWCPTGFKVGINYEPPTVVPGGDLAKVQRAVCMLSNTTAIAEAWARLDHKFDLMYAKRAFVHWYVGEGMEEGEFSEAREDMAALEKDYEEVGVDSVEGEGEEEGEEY
Tubulin was isolated as pure αβ-tubulin from fresh pig brain according to the method of Castoldi and Popov (Protein Expr. Purif. 2003, 32, 83-88). Fresh brains were obtained from the local slaughterhouse and processed immediately without prior cooling. 150-200 g cleaned pig brain was put into ice-cooled depolymerization buffer (50 mM MES [2-morpholinoethanesulphonic acid], 1 mM CaCl2, adjusted to pH 6.9 with KOH) and homogenized in a Polytron mixer. The homogenate was centrifuged in a Sorvall SLA-1500 rotor at 14500 rpm for 60 min. The supernatant was transferred into an Erlenmeyer flask in high-molarity PIPES buffer (1 M PIPES [1,4-piperazinediethanesulfonic acid], 10 mM MgCl2, 20 mM EGTA [ethylene glycol-bis-2(2-aminoethyl)-tetraacetic acid] adjusted to pH 6.9 with KOH) plus […] (1.5 mM final concentration) and glycerol (98%) ad 300 ml. The resulting suspension was mixed and incubated at 37°C for 1 hour. Aliquots were transferred into ultracentrifuge tubes and centrifuged in a Beckman Ti50.2 rotor at.32500 rpm (96000 g) for 75 min at 30°C. The microtubule protein pellets were resuspended in depolymerization buffer and put on ice prior to ultracentrifugation at 4°C. The procedure was repeated for two polymerization cycles (total of 3 cycles) and the final αβ-tubulin pellets were resuspended in ice-cold Brinkley Buffer (BRB80; 80 mM PIPES, 1 mM MgCl2, 1 mM EGTA adjusted to pH 6.8 with KOH) prior to shock-freezing in liquid nitrogen and subsequent storage at -80°C. αβ-tubulin purity and concentration were determined by SDS-PAGE gel electrophoresis and spectrophotometrically (A = ε x c x d with a given extinction coefficient of 115'000 M^-1cm^-1) at 280 nm. This procedure typically yielded 60-100 mg of αβ-tubulin per 100 g of brain.
Freshly thawed αβ-tubulin was centrifuged at 5000 g for 5 min at 5°C and then incubated with additional BRB80 buffer, drugs, DMSO vehicle, guanosine-5'-triphosphate (GTP) / glutamate (25 mM /2.7 M), respectively, in a 96-well plate in either 50 or 100 µl volumes. Experiments were either carried out in a 96-well quartz plate or in normal 96-well polystyrene plates (Falcon). The polymerization was monitored real-time at 340 nm in a temperature-controlled TECAN GeniosPro spectrophotometer. Depending on the specific experiment, the temperature was set either to room temperature (actual measuring temperature was 24-27°C) or 37°C. […] UV absorption of compounds was subtracted from absorption curves. All experiments, along with both negative (untreated αβ-tubulin) and vehicle controls, were carried out in triplicate. Experiments were performed at least with two different αβ-tubulin batches.

For a further assay, the system named is HCT-116. Kind of assay: Human cancer cell growth inhibition, methylene blue staining, HCT-116. Type of assay: cell-based. The note with it: read-out: IC50 HCT-116. As for the experimental part: as §1, §2
Assay [1] concerns drug-sensitive human cancer cells. Kind of assay: Potency comparison on drug-sensitive human cancer cell lines (from Table 1). The following applies: potency ratio versus reference compound B. It is filed as cell-based. The protocol: as §1, with “The cells are incubated at 37°C in an incubator with 5% v/v CO2 and at 80% relative humidity with MEMAlpha medium which contains ribonucleosides and desoxyribonucleosides (Gibco BRL), complemented with 10 IU penicillin, 10 µg/ml streptomycin and 5% foetal calf serum.” left out, “night.” for “night. Serial dilutions of the test compounds in culture medium are added on day 1.”, “(OD control)-(OD start)] x 100. The IC50 is defined as the concentration of a test compound at the end of the incubation period, which led to 50% of the cell count per well compared with the control (concentration at semi-maximum inhibition of cell growth).” left out

Another assay has as its system KB-31. Kind of assay: Human cancer cell growth inhibition, methylene blue staining, KB-31. Type of assay: cell-based. The note with it: read-out: IC50 KB-31. The protocol: as §1, with “The cells are incubated at 37°C in an incubator with 5% v/v CO2 and at 80% relative humidity with MEMAlpha medium which contains ribonucleosides and desoxyribonucleosides (Gibco BRL), complemented with 10 IU penicillin, 10 µg/ml streptomycin and 5% foetal calf serum.” left out, “night.” for “night. Serial dilutions of the test compounds in culture medium are added on day 1.”, “(OD control)-(OD start)] x 100. The IC50 is defined as the concentration of a test compound at the end of the incubation period, which led to 50% of the cell count per well compared with the control (concentration at semi-maximum inhibition of cell growth).” left out

For the compound `C/C(=C\c1csc(C)n1)[C@@H]1C[C@@H]2O[C@@H]2CCC[C@H](C)[C@H](O)[C@@H](C)C(=O)C(C)(C)[C@@H](O)CC(=O)O1` [C, Epothilone A, reference compound], the IC50 with A549 (A549, read-out: IC50 A549) was determined as 3.2 ± 0.5 nM; in the assay with PC-3M (PC-3M), 3.4 ± 0.4 nM; in the assay with HCT-116 (HCT-116, 72 h), 2.2 ± 0.3 nM. The compound also showed an EC50 on porcine brain αβ-tubulin of 4.6 ± 0.5 µM.
The matching figures for `Cc1nc2cc([C@@H]3CCN(C(=O)OC(C)(C)C)C/C=C/[C@H](C)[C@H](O)[C@@H](C)C(=O)C(C)(C)[C@@H](O)CC(=O)O3)ccc2n1C` [A, (2S,9S,10S,11R,14S,E)-tert-butyl-2-(1,2-dimethyl-1H-benzo[d]imidazol-5-yl)-10,14-dihydroxy-9,11,13,13-tetramethyl-12,16-dioxo-1-oxa-5-azacyclohexadec-7-ene-5-carboxylate, reference compound]: 920 ± 85 nM, 973 ± 64 nM, 1010 ± 71 nM and 9.1 ± 0.7 µM.
For `Cc1nc2cc([C@@H]3CCN(C(=O)OC(C)(C)C)CCC[C@H](C)[C@H](O)[C@@H](C)C(=O)C(C)(C)[C@@H](O)CC(=O)O3)ccc2n1C` [Compound 1, (2S,9S,10S,11R,14S)-tert-butyl-2-(1,2-dimethyl-1H-benzo[d]imidazol-5-yl)-10,14-dihydroxy-9,11,13,13-tetramethyl-12,16-dioxo-1-oxa-5-azacyclohexadecane-5-carboxylate], the IC50 was found to be 1.9 ± 0.4 nM in the assay with A549 (A549: lung, cells exposed, mean of at least three experiments ± standard deviation, read-out: IC50 A549); 2.3 ± 0.6 nM in the assay with PC-3M (PC-3M: prostate, cells exposed, mean of at least three experiments ± standard deviation); 1.6 ± 0.5 nM in the assay with HCT-116 (HCT-116: colon, cells exposed for 72 h, mean of at least three experiments ± standard deviation); 0.35 nM in the assay with KB-31 (KB 3-1, KB-31: cervical (or cervix), parental line, cells exposed for 72 h). Also, the “more potent against drug-sensitive human cancer cells than aza-epothilone B” value in assay [1] is listed as above 60 fold. Moreover, the EC50 at porcine brain αβ-tubulin (concentration required to induce 50% of the maximum αβ-tubulin polymerization achievable with the respective compound, 10 µM of porcine brain αβ-tubulin, turbidity at 340 nm, mean ± standard deviation, read-out: EC50 Tubulin polymerization) was determined as 3.9 ± 0.6 µM.
Take `CCOC(=O)N1CCC[C@H](C)[C@H](O)[C@@H](C)C(=O)C(C)(C)[C@@H](O)CC(=O)O[C@H](c2ccc3c(c2)nc(C)n3C)CC1` [Compound 2]: the IC50 in the assay on A549 (A549, read-out: IC50 A549) turned out to be 18 ± 3.1 nM; in the assay with PC-3M (PC-3M), 12.3 ± 1.1 nM; with HCT-116 (HCT-116, 72 h), 23.9 ± 2.9 nM. On porcine brain αβ-tubulin, this compound registered a concentration giving a half-maximal response (EC50) of 5.4 ± 0.4 µM.
Regarding `C/C(=C\c1csc(C)n1)[C@@H]1CCN(C(=O)OC(C)(C)C)CCC[C@H](C)[C@H](O)[C@@H](C)C(=O)C(C)(C)[C@@H](O)CC(=O)O1` [B, reference compound], the IC50 was determined as 130 ± 24 nM in the assay with A549 (A549, read-out: IC50 A549); 126 ± 22 nM with PC-3M (PC-3M); 110 ± 19 nM in the assay with HCT-116 (HCT-116, 72 h); 31 nM in the assay with KB-31 (KB 3-1, 72 h). Also, the EC50 on porcine brain αβ-tubulin turned out to be 5.6 ± 0.4 µM.
As for `Cc1nc2cc([C@@H]3CCN(c4ccc([N+](=O)[O-])c5nonc45)CCC[C@H](C)[C@H](O)[C@@H](C)C(=O)C(C)(C)[C@@H](O)CC(=O)O3)ccc2n1C` [Compound 17, (2S,9S,10S,11R,14S)-2-(1,2-dimethyl-1H-benzo[d]imidazol-5-yl)-10,14-dihydroxy-9,11,13,13-tetramethyl-5-(7-nitrobenzo[c][1,2,5]oxadiazol-4-yl)-1-oxa-5-azacyclohexadecane-12,16-dione], the concentration for half-maximal inhibition (IC50) in the assay on A549 (A549, read-out: IC50 A549) was 329 ± 237 nM; in the assay with PC-3M (PC-3M), 244 ± 45 nM; in the assay on HCT-116 (HCT-116, 72 h), 206 ± 8 nM. For the same compound, at porcine brain αβ-tubulin, the EC50 stood at 7.2 ± 0.6 µM.
The matching figures for `Cc1nc2cc([C@@H]3CCN(C(=O)OCC(F)(F)F)CCC[C@H](C)[C@H](O)[C@@H](C)C(=O)C(C)(C)[C@@H](O)CC(=O)O3)ccc2n1C` [Compound 3]: 11.5 ± 1.8 nM, 6.3 ± 2.1 nM, 17.1 ± 3.3 nM and 5.1 ± 0.5 µM.
